Results as given in patent US8198061B2, “Acetylcholinesterase gene responsible for insecticide resistance and applications thereof” (priority 2002, dated 2012).

Legend:
[1] = target: T1, Culex pipiens AChE1, resistant SR strain (serine at position 119, G119S) (Culex pipiens, UniProt Q86GC8, G247S); experiment: Acetylcholinesterase activity of recombinant resistant AChE1 (S2 cell extracts) with propoxur; type: biochemical; details: glycine247(119)→serine247(119) mutant (SR); 10^−4 M and 10^−2 M of propoxur; FIG. 10
T1 construct: The cDNAs encoding the AChE1s of, respectively, the strain S-LAB and the strain SR were cloned in the eukaryotic expression vector pAc5.1/V5-His; V5-His (from the vector pAc5.1/V5-His); made in house; host or cells: Drosophila Schneider S2 cells, transiently transfected; Triton X-100 cell extract, not purified
Source text: (§1) The cDNAs encoding the AChE1s of, respectively, the strain S-LAB and the strain SR were cloned in the eukaryotic expression vector pAc5.1/V5-His (INVITROGEN), according to conventional recombinant DNA techniques, by following standard protocols such as those described in Current Protocols in Molecular Biology, mentioned above. Drosophila cells (Schneider S2 cells) were transfected with the recombinant vectors thus obtained, using the Fugen® reagent (ROCHE), according to the manufacturer's instructions. 24 hours after transfection, the cells were harvested by centrifugation and then lyzed in a 0.25M phosphate buffer containing 1% Triton X-100. The acetylcholinesterase activity of the cell extracts obtained was measured, in the presence or in the absence of insecticide (propoxur), by the method as described in Bourguet et al., Biochemical Genetics, 1996, 34, 351-362.
(§2) The recombinant AChE1s of, respectively, the strain S-LAB and the strain SR were expressed in insect cells and the acetylcholinesterase activity was measured using cell extracts as described in example 1.

[2] = system: C. pipiens larvae; experiment: Larval mortality on exposure to propoxur (back crosses, ace-1 linkage study); type: in vivo, Culex pipiens
Experimental: With the females being indicated first, F1 crosses (S×R) and back crosses (F1×S-LAB and S-LAB×F1) were obtained by mass crossing of adults. A few larvae derived from the back crosses were treated with a dose of carbamate (propoxur, 4 mg/l) which kills 100% of sensitive larvae. The linkage between ace-1 and propoxur resistance was studied by RFLP in the surviving larvae, based on a 320 bp PCR product making it possible to identify the S and R alleles. The experiments were carried out independently, with S=SA1, S=SA4 and S=EDIT.
The linkage between the ace-1 gene and propoxur resistance was studied, in triplicate, in the following way: larvae from a backcross (S×R)×S were treated for a dose that is lethal for sensitive individuals and the ace-1 genotype was analyzed in the survivors, by PCR-RFLP.

[3] = target: T2, Culex pipiens AChE1, sensitive S-LAB strain (glycine at position 119) (Culex pipiens, UniProt Q86GC8); experiment: Acetylcholinesterase activity of recombinant sensitive AChE1 (S2 cell extracts) with propoxur; type: biochemical; details: 10^−3 M of propoxur
T2 construct: The cDNAs encoding the AChE1s of, respectively, the strain S-LAB and the strain SR were cloned in the eukaryotic expression vector pAc5.1/V5-His; V5-His (from the vector pAc5.1/V5-His); made in house; host or cells: Drosophila Schneider S2 cells, transiently transfected; Triton X-100 cell extract, not purified
Source text: as §1, §2

[4] = target: AChE; details: Abramson et al., Mol. Pharmacol., 1989, 36, 349; read-out: apparent affinity; cited from earlier work

## CNC(=O)Oc1ccccc1OC(C)C [propoxur]
[1]
  sensitivity of the acetylcholinesterase to the insecticide: insensitive
[2]; larvae from backcross (S×R)×S, dose lethal for sensitive individuals, all back crosses
  larvae killed in back crosses: 50%
[2]; sensitive larvae, propoxur 4 mg/l
  sensitive larvae killed: 100%
[3]
  activity of the AChE1 inhibited: 90%

## C=C1CCCC(C)(C)C1C/C=C(C=O)\C=C\OC(C)=O (centres unmarked) [onchidal]
[4]
  Kd: 300 µM
